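All cell lines were grown in 96-well plates and treated with compound for 48 hours. The concentration for 50% growth inhibition is given as GI50. Definition used: TGI = concentration required for complete inhibition of growth.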
What was measured:
Assay in all cases: NCI-60 cell line screen, 48 h; in the data active = GI50 below about 0.43 µM; inactive = the rest
[1] = system: 786-0 renal
[2] = system: A498 renal
[3] = system: A549 NSCLC
[4] = system: ACHN renal
[5] = system: CAKI-1 renal
[6] = system: CCRF-CEM leukemia
[7] = system: COLO 205 colon
[8] = system: DU-145 prostate
[9] = system: HCC-2998 colon
[10] = system: HCT-116 colon
[11] = system: HCT-15 colon
[12] = system: HOP-62 NSCLC
[13] = system: HOP-92 NSCLC
[14] = system: HS 578T breast
[15] = system: IGROV1 ovarian
[16] = system: K-562 leukemia
[17] = system: KM12 colon
[18] = system: LOX IMVI melanoma
[19] = system: M14 melanoma
[20] = system: MALME-3M melanoma
[21] = system: MCF7 breast
[22] = system: MDA-MB-435
[23] = system: MOLT-4 leukemia
[24] = system: NCI-H226 lung
[25] = system: NCI-H23 lung
[26] = system: NCI-H460 lung
[27] = system: NCI-H522 lung
[28] = system: NCI/ADR-RES ovarian
[29] = system: OVCAR-3 ovarian
[30] = system: OVCAR-4 ovarian
[31] = system: OVCAR-5 ovarian
[32] = system: OVCAR-8 ovarian
[33] = system: PC-3 prostate
[34] = system: RPMI-8226 leukemia
[35] = system: RXF 393 renal
[36] = system: SF-268 CNS
[37] = system: SF-295 CNS
[38] = system: SK-MEL-2 melanoma
[39] = system: SK-MEL-28 melanoma
[40] = system: SK-MEL-5 melanoma
[41] = system: SK-OV-3 ovarian
[42] = system: SN12C renal
[43] = system: SNB-19 CNS
[44] = system: SR leukemia
[45] = system: T-47D breast
[46] = system: TK-10 renal
[47] = system: U251 CNS
[48] = system: UACC-62 melanoma
[49] = system: UO-31 renal

C=C(C)[C@@H]1C/C=C(/COC(C)=O)CC[C@H]2O[C@@]2(C)CC/C=C(\C)CC1
inactive: GI50 [1] 67.9 µM | GI50 [2] > 100 µM | GI50 [3] 40.1 µM | GI50 [4] > 100 µM | GI50 [5] > 100 µM | GI50 [6] 26.9 µM | GI50 [7] > 100 µM | GI50 [8] > 100 µM | GI50 [9] > 100 µM | GI50 [10] 38 µM | GI50 [11] > 100 µM | GI50 [12] > 100 µM | GI50 [13] > 100 µM | GI50 [14] > 100 µM | GI50 [15] > 100 µM | GI50 [16] 21.4 µM | GI50 [17] > 100 µM | GI50 [18] 20.3 µM | GI50 [19] > 100 µM | GI50 [20] > 100 µM | GI50 [21] 81 µM | GI50 [22] > 100 µM | GI50 [23] 28.4 µM | GI50 [24] > 100 µM | GI50 [25] > 100 µM | GI50 [26] > 100 µM | GI50 [27] > 100 µM | GI50 [28] > 100 µM | GI50 [29] > 100 µM | GI50 [30] > 100 µM | GI50 [31] > 100 µM | GI50 [32] > 100 µM | GI50 [33] > 100 µM | GI50 [34] 21.1 µM | GI50 [35] 33.6 µM | GI50 [36] > 100 µM | GI50 [37] > 100 µM | GI50 [38] > 100 µM | GI50 [39] > 100 µM | GI50 [40] > 100 µM | GI50 [41] > 100 µM | GI50 [42] > 100 µM | GI50 [43] > 100 µM | GI50 [44] 34.3 µM | GI50 [45] > 100 µM | GI50 [46] > 100 µM | GI50 [47] > 100 µM | GI50 [48] > 100 µM | GI50 [49] 30.4 µM
91.5 µM: TGI [44]
45.1 µM: TGI [16]
46.5 µM: TGI [18]
82.3 µM: TGI [23]
54.8 µM: TGI [6]
> 100 µM: TGI [1] | TGI [2] | TGI [3] | TGI [4] | TGI [5] | TGI [7] | TGI [8] | TGI [9] | TGI [10] | TGI [11] | TGI [12] | TGI [13] | TGI [14] | TGI [15] | TGI [17] | TGI [19] | TGI [20] | TGI [21] | TGI [22] | TGI [24] | TGI [25] | TGI [26] | TGI [27] | TGI [28] | TGI [29] | TGI [30] | TGI [31] | TGI [32] | TGI [33] | TGI [35] | TGI [36] | TGI [37] | TGI [38] | TGI [39] | TGI [40] | TGI [41] | TGI [42] | TGI [43] | TGI [45] | TGI [46] | TGI [47] | TGI [48] | TGI [49]
44 µM: TGI [34]
